Experimental data reported in patent US10906878B2, “Kinase inhibitors for the treatment of disease” (Dana-Farber Cancer Institute, Inc., priority 2013, dated 2021).

What was measured:
EGFR L858R Ba/F3 cells = EGFR L858R Ba/F3 cells (Homo sapiens (Human), UniProt P00533, L858R); experiment: Ba/F3 cell growth inhibition (MTS assay), EGFR L858R; type: cell-based; conditions: for EGFR activity (% Control, 100 nM drug) L858R: Table G
[1] = molecular target: EGFR L858R/T790M Ba/F3 cells (Homo sapiens (Human), UniProt P00533, L858R/T790M); experiment: Ba/F3 cell growth inhibition (MTS assay), EGFR L858R/T790M; type: cell-based; conditions: for EGFR activity (% Control, 100 nM drug) L858R/T790M: Table G
BTK = BTK (Homo sapiens (Human), UniProt Q06187); experiment: BTK kinase assay (LanthaScreen Kinase assay); type: biochemical
Procedure: BTK kinase assay was conducted using LanthaScreen® Kinase assay.
1. Optimization of kinase concentration required to determine ATP Km,app. The assay was first performed at a high concentration of ATP (1 mM) against a dilution series of kinase in order to determine the amount of kinase required to elicit an approximately 80% change between the minimum and maximum TR-FRET emission ratios (the EC80 value).
2. Determination of ATP Km,app. Using the concentration of enzyme determined in step 1, the assay was then performed against a dilution series of ATP in order to determine the amount of ATP required to elicit a 50% change between the minimum and maximum TR-FRET emission ratios (the EC50 value). This concentration of ATP was referred to as the “apparent” Km value for ATP, or the ATP Km,app.
3. Optimization of kinase concentration required for assay at ATP Km,app. Using the ATP Km,app concentration of ATP determined in step 2, the kinase titration was repeated in order to determine the concentration of kinase required to elicit an approximately 80% change between the minimum and maximum TR-FRET emission ratios at the ATP Km,app concentration of ATP (the EC80 value). This was the concentration of kinase that will be used in an assay to determine an IC50 value for a compound of the invention.
Using the ATP and kinase concentrations determined above, the reaction was then performed in the presence of a dilution series of various compounds of the invention, and the amount of compounds required to elicit a 50% change in TR-FRET ratio (the IC50) was determined. The experiments can be performed over two days, with steps one and two being performed on the first day, and step three and the inhibitor IC50 determination(s) being performed on the second day.

[2] = molecular target: EGFR Del/T790M Ba/F3 cells (Homo sapiens, UniProt P00533, T790M, cells depend on it, form not given); experiment: Ba/F3 cell growth inhibition (MTS assay), EGFR Del/T790M; type: cell-based; conditions: for EGFR activity (% Control, 100 nM drug) Del/T790M: Table G
EGFR Del Ba/F3 cells = EGFR Del Ba/F3 cells (Homo sapiens, UniProt P00533, cells depend on it, form not given); experiment: Ba/F3 cell growth inhibition (MTS assay), EGFR Del; type: cell-based; conditions: for EGFR activity (% Control, 100 nM drug) Del: Table G
Ba/F3 TYK2_E957D = Ba/F3 TYK2_E957D (Homo sapiens (Human), UniProt P29597, E957D); experiment: Inhibition of Ba/F3 TYK2_E957D cell line; type: cell-based; conditions: read-out: IC50 (μM) Ba/F3 TYK2_E957D
Procedure: (§1) Growth and inhibition of growth was assessed by MTS assay. This assay, a colorimetric method for determining the number of viable cells, is based on the bioreduction of 3-(4,5-dimethylthiazol-2-yl)-5-(3-carboxymethoxyphenyl)-2-(4-sulfophenyl)-2H-tetrazolium (MTS) by cells to a formazan product that is soluble in cell culture medium, can be detected spectrophotometrically and was performed according to the manufacturer's recommended conditions. Ba/F3 cells were exposed to treatment for 72 hours and the number of cells used per experiment determined empirically to assure linear growth kinetics over that time period. All experimental points were set up in six to twelve wells and all experiments were repeated at least three times. […] The curves were fitted using a non-linear regression model with a sigmoidal dose response.

Ba/F3 TEL-JAK2 = Ba/F3 TEL-JAK2 (Homo sapiens, UniProt O60674); experiment: Inhibition of Ba/F3 TEL-JAK2 cell line; type: cell-based; conditions: read-out: IC50 (μM) Ba/F3 TEL-JAK2
Procedure: as §1

Ba/F3 TEL-JAK3 = Ba/F3 TEL-JAK3 (Homo sapiens, UniProt P52333); experiment: Inhibition of Ba/F3 TEL-JAK3 cell line; type: cell-based; conditions: read-out: IC50 (μM) Ba/F3 TEL-JAK3
Procedure: as §1

Ba/F3 TEL-ABL = Ba/F3 TEL-ABL (Homo sapiens, UniProt P00519); experiment: Inhibition of Ba/F3 TEL-ABL cell line; type: cell-based; conditions: read-out: IC50 (μM) Ba/F3 TEL-ABL
Procedure: as §1

Ba/F3 TEL-JAK1 = Ba/F3 TEL-JAK1 (Homo sapiens, UniProt P23458); experiment: Inhibition of Ba/F3 TEL-JAK1 cell line; type: cell-based; conditions: read-out: IC50 (μM) Ba/F3 TEL-JAK1
Procedure: as §1

TXK = TXK (Homo sapiens (Human), UniProt P42681); experiment: Kinase inhibition TXK; type: biochemical
TEC = TEC (Homo sapiens (Human), UniProt P42680); experiment: Kinase inhibition TEC; type: biochemical
BLK = BLK (Homo sapiens (Human), UniProt P51451); experiment: Kinase inhibition BLK; type: biochemical
ITK = ITK (Homo sapiens (Human), UniProt Q08881); experiment: Kinase inhibition ITK; type: biochemical
[3] = molecular target: EGFR Del/T790M/L718Q Ba/F3 cells (Homo sapiens, UniProt P00533, L718Q/T790M, cells depend on it, form not given); type: cell-based; conditions: 1.0 μM drug
Excerpt: The specific cDNAs encoding the oncogenic alterations (EGFR: Del 19, L858R, L718Q, L844V, Del/T790M, L858R/T790M, Del 19/L718Q, Del 19/L844V, Del 19/T790M/L718Q and L858R/T790M/L718Q; FGFR: TEL-FGFR1, TEL-FGFR2, TEL-FGFR1 V561M, TEL-FGFR2 V561M; ALK: EML4-ALK; ROS1: CD74-ROS1) were cloned into the pDNA-Dual (BD Biosciences) vector using standard molecular biology techniques. Mutations were introduced using site-directed mutagenesis (Agilent) with mutant specific primers according to the manufacturer's instructions. All constructs were confirmed by DNA sequencing. The constructs were introduced into Ba/F3 cells using retroviral infection. Polyclonal cell lines were established by puromycin selection and subsequently cultured in the absence of interleukin-3 (IL-3). Uninfected Ba/F3 cells or cell lines expressing green fluorescent protein (GFP) were used as controls.
as §1

KIF5B/Ret_V804M = experiment: Ba/F3 cell growth inhibition (MTS assay), KIF5B/Ret_V804M; type: cell-based
Procedure: as §1

[4] = Microsome Stability Mouse; type: in vitro ADME; conditions: mouse microsomes
[5] = molecular target: EGFR Wild type vIII Ba/F3 cells (Homo sapiens (Human), UniProt P00533, DELINS30-297G); experiment: Ba/F3 cell growth inhibition (MTS assay), EGFR Wild type vIII; type: cell-based; conditions: Assay 1, read-out: EGFR Ba/F3 cells IC 50 (nM) Assay 1 Wild type vIII
[6] = molecular target: EGFR L858R/T790M/L718Q Ba/F3 cells (Homo sapiens (Human), UniProt P00533, L718Q/L858R/T790M); experiment: Ba/F3 cell growth inhibition (MTS assay), EGFR L858R/T790M/L718Q; type: cell-based; conditions: Assay 1; T/L/L718Q; read-out: EGFR Ba/F3 cells IC 50 (nM) Assay 1 T/L/L718Q

Sequence of Ba/F3 TEL-ABL (P00519 whole entry, looked up, change not shown): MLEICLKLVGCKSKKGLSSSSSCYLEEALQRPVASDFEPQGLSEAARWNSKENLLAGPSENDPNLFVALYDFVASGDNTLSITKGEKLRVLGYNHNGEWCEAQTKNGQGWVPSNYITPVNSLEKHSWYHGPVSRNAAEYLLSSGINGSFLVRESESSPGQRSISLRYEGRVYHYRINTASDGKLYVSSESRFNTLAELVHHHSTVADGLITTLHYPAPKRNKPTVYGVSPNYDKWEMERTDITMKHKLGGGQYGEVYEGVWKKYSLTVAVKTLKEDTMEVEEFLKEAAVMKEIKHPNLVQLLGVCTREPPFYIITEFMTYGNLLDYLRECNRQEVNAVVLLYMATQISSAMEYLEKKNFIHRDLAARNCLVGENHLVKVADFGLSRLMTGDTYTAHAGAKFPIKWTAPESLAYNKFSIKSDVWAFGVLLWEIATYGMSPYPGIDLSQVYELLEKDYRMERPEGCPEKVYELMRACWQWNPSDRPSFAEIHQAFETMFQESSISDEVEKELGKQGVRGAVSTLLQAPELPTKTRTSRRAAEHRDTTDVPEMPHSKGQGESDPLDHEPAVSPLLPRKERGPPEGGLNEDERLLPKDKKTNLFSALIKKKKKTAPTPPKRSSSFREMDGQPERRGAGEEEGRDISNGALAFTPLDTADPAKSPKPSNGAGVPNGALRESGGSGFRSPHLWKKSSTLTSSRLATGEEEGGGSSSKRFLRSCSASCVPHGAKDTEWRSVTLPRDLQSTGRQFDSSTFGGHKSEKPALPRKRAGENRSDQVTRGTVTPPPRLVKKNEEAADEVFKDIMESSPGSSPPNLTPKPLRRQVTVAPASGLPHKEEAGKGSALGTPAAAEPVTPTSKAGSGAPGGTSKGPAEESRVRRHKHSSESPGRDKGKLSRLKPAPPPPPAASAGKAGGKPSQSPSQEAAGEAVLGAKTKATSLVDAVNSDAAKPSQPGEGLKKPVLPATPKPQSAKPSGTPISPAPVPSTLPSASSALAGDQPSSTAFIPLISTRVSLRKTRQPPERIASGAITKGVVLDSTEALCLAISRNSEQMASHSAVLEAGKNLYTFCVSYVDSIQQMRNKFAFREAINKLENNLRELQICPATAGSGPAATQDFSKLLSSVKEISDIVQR
Sequence of BLK (P51451 whole entry): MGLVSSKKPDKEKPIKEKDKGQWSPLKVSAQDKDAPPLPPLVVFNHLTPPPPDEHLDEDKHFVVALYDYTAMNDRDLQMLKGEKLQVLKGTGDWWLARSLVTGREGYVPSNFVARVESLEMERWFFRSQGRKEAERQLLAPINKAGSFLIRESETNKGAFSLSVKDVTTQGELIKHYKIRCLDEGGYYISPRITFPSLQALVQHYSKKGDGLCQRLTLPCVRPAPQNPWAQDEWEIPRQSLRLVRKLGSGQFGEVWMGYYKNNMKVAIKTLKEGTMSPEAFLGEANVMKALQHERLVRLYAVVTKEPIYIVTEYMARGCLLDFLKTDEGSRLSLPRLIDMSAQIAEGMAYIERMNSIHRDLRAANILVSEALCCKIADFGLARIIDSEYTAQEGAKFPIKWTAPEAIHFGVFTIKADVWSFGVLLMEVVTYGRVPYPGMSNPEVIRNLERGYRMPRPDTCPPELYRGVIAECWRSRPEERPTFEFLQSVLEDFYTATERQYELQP
Sequence of Ba/F3 TYK2_E957D (P29597 whole entry E957D): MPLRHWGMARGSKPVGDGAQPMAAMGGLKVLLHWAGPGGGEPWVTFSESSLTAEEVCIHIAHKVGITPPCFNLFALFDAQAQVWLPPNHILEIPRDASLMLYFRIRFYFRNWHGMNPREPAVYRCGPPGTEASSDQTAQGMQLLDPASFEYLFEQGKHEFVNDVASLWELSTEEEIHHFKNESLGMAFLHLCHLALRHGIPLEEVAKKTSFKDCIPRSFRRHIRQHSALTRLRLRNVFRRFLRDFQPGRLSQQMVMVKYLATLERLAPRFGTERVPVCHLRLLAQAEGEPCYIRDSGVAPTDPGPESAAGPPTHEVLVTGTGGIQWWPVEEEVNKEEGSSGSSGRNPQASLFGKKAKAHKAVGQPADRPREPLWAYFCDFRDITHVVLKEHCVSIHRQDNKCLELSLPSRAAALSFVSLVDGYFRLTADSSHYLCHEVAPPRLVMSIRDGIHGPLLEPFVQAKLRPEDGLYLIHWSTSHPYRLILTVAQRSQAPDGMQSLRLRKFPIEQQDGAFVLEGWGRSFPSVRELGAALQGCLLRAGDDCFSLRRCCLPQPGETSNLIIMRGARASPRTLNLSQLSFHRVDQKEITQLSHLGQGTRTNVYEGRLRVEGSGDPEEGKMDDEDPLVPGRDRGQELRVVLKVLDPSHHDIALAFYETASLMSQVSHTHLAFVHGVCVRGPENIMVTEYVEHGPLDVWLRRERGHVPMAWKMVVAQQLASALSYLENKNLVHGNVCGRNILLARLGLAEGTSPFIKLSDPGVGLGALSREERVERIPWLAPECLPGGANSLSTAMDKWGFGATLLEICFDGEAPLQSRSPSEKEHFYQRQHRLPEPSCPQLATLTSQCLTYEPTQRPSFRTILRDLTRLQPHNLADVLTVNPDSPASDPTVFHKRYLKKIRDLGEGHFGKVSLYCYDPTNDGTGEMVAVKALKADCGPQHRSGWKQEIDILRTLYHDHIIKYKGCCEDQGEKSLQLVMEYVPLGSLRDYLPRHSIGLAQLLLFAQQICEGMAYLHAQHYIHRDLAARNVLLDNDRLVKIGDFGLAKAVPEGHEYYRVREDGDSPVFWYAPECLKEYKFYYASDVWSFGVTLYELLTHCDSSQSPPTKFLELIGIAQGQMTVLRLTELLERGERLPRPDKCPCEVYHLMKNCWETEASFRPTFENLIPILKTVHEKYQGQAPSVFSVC
Sequence of ITK (Q08881 whole entry): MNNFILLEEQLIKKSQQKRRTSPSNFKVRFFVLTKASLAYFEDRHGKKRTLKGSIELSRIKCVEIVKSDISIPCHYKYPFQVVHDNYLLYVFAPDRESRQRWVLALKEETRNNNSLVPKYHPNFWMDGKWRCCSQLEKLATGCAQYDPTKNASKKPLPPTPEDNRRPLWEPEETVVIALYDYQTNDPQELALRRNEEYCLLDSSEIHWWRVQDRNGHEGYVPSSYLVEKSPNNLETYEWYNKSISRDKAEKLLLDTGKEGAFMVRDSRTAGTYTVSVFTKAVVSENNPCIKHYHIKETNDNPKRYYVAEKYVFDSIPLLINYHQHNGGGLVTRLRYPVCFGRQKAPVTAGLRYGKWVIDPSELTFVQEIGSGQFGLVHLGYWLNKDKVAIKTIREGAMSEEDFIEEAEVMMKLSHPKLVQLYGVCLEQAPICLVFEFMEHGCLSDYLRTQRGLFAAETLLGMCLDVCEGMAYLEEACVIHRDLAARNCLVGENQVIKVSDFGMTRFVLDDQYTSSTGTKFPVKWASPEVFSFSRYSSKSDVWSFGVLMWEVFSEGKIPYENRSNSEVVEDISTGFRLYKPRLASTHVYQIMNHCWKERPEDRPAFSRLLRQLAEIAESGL
Sequence of TEC (P42680 whole entry): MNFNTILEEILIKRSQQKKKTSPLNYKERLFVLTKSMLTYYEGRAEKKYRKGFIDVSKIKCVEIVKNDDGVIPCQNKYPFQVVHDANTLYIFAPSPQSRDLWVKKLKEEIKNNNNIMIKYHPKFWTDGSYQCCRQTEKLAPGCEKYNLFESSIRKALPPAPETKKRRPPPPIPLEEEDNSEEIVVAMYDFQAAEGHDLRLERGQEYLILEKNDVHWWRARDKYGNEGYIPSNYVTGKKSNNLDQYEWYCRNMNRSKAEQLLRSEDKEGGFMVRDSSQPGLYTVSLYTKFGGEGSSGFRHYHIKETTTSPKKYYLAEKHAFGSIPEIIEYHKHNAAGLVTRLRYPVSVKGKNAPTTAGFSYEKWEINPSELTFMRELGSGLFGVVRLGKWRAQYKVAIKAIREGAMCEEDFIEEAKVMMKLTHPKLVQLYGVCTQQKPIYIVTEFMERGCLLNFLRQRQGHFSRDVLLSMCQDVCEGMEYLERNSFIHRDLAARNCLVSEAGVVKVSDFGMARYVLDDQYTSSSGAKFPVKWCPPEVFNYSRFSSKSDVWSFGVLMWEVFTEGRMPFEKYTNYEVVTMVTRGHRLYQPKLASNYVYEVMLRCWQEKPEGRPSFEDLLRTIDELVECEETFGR
Sequence of TXK (P42681 whole entry): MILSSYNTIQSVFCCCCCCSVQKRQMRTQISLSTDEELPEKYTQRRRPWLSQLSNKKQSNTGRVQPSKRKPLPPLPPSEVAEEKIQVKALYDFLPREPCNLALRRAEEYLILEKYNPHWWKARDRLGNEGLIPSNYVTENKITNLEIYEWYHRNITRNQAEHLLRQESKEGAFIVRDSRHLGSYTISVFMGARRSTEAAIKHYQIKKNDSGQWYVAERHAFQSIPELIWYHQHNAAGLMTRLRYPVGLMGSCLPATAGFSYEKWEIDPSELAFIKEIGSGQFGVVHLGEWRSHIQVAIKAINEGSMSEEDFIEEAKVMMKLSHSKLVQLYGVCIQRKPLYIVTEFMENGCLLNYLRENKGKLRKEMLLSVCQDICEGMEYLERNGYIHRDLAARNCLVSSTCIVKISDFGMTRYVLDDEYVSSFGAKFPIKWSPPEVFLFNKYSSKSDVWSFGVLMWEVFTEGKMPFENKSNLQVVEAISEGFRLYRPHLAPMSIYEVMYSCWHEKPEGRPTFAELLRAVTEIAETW

| SMILES | IC50 (Ba/F3 TYK2_E957D) | IC50 (Ba/F3 TEL-JAK2) | IC50 (Ba/F3 TEL-JAK3) | IC50 (Ba/F3 TEL-ABL) | IC50 (Ba/F3 TEL-JAK1) | Kinase inhibition (% control, 1000 nM compound) TXK (TXK) | Kinase inhibition (% control, 1000 nM compound) TEC (TEC) | Kinase inhibition (% control, 1000 nM compound) BLK (BLK) | Kinase inhibition (% control, 1000 nM compound) ITK (ITK) | also measured |
| --- | --- | --- | --- | --- | --- | --- | --- | --- | --- | --- |
| C=CC(=O)Nc1cccc(N(C(=O)NCc2ccccc2)c2cc(Nc3ccc(N4CCN(C)CC4)cc3)ncn2)c1 [Compound 29A] |  |  |  |  |  |  |  |  |  | EGFR activity (% Control, 100 nM drug) L858R (EGFR L858R Ba/F3 cells): 0 % Control; EGFR activity (% Control, 100 nM drug) L858R/T790M [1]: 13 % Control; IC50 (BTK): 19.4 nM; EGFR activity (% Control, 100 nM drug) Del/T790M [2]: 6 % Control; EGFR activity (% Control, 100 nM drug) Del (EGFR Del Ba/F3 cells): 2 % Control |
| C=CC(=O)Nc1cccc(N(C(=O)Nc2ccccc2)c2cc(Nc3ccc(N4CCN(C)CC4)cc3)ncn2)c1 [Compound 25A] |  |  |  |  |  |  |  |  |  | EGFR activity (% Control, 100 nM drug) L858R (EGFR L858R Ba/F3 cells): 1 % Control; EGFR activity (% Control, 100 nM drug) L858R/T790M [1]: 24 % Control; IC50 (BTK): 31.2 nM; EGFR activity (% Control, 100 nM drug) Del/T790M [2]: 53 % Control; EGFR activity (% Control, 100 nM drug) Del (EGFR Del Ba/F3 cells): 14 % Control |
| C=CC(=O)Nc1cccc(N(C(=O)OCc2ccccc2)c2ccnc(Nc3cnn(CCN4CCOCC4)c3)n2)c1 [Compound 85A] | 4.37 µM | 18.3 µM | 0.189 µM | 16.1 µM | 8.86 µM |  |  |  |  |  |
| C=CC(=O)Nc1cc(Nc2nccc(N(C)C(=O)Oc3ccccc3)n2)c(OC)cc1N(C)CCN(C)C [Compound 80A] |  |  |  |  |  | 12 % control | 90 % control | 14 % control | 94 % control |  |
| C=CC(=O)Nc1cccc(N(C(=O)NCc2ccccc2)c2cc(Nc3ccc(N4CCN(C)CC4)cc3OC)ncn2)c1 [Compound 3A, N-(3-(3-benzyl-1-(6-((2-methoxy-4-(4-methylpiperazin-1-yl)phenyl)amino)pyrimidin-4-yl)ureido)phenyl)acrylamide] |  |  |  |  |  | 7.4 % control | 55 % control | 19 % control | 100 % control | EGFR activity (% Control, 1.0 μM drug) Assay 1 L858R (EGFR L858R Ba/F3 cells; 1.0 μM drug, Assay 1): 2 % Control; EGFR activity (% Control, 1.0 μM drug) Assay 2 L858R (EGFR L858R Ba/F3 cells; 1.0 μM drug, Assay 2): 4 % Control; EGFR activity (% Control, 1.0 μM drug) Assay 1 Del/T790M/L718Q ([3]; Assay 1): 53 % Control; EGFR activity (% Control, 1.0 μM drug) Assay 2 Del/T790M/L718Q ([3]; Assay 2): 86 % Control; EGFR activity (% Control, 1.0 μM drug) Assay 1 Del/T790M ([2]; 1.0 μM drug, Assay 1): 1 % Control; EGFR activity (% Control, 1.0 μM drug) Assay 2 Del/T790M ([2]; 1.0 μM drug, Assay 2): 2 % Control; EGFR activity (% Control, 1.0 μM drug) Assay 1 KIF5B/Ret_V804M (KIF5B/Ret_V804M): 102 % Control; EGFR activity (% Control, 1.0 μM drug) Assay 1 Del (EGFR Del Ba/F3 cells; 1.0 μM drug, Assay 1): 2 % Control; EGFR activity (% Control, 1.0 μM drug) Assay 2 Del (EGFR Del Ba/F3 cells; 1.0 μM drug, Assay 2): 1 % Control |
| C=CC(=O)Nc1cccc(N(C(=O)OCc2ccccc2)c2ccnc(Nc3ccc(N4CCN(C)CC4)cc3OC)n2)c1 [Compound 4A, Benzyl (3-acrylamidophenyl)(2-((2-methoxy-4-(4-methylpiperazin-1-yl)phenyl)amino)pyrimidin-4-yl)carbamate] |  |  |  |  |  | 27 % control | 83 % control | 20 % control | 100 % control | IC50 (EGFR L858R Ba/F3 cells; Assay 1, L858R, read-out: EGFR Ba/F3 cells IC 50 (nM) Assay 1 L858R): 0.5 nM; Microsome Stability Mouse min [4]: 29 min; IC50 ([1]; Assay 1, L858R/T790M, read-out: EGFR Ba/F3 cells IC 50 (nM) Assay 1 L858R/T790M): 7.6 nM; IC50 [5]: 2.92 nM; IC50 ([2]; Assay 1, Del/T790M, read-out: EGFR Ba/F3 cells IC 50 (nM) Assay 1 Del/T790M): 17.3 nM; IC50 [6]: 293 nM; IC50 (EGFR Del Ba/F3 cells; Assay 1, Del, read-out: EGFR Ba/F3 cells IC 50 (nM) Assay 1 Del): 14.2 nM |
| C=CC(=O)Nc1cccc(N(C(=O)OCc2ccccc2)c2ccnc(Nc3cnn(C)c3)n2)c1 [Compound 83A] | 2.95 µM | 17.5 µM | 0.107 µM | 16.7 µM | 9 µM | 3.8 % control | 5.7 % control | 0.4 % control | 66 % control |  |
| C=CC(=O)Nc1cccc(N(C(=O)OCc2ccccc2)c2ccnc(Nc3cnn(C4CCOCC4)c3)n2)c1 [Compound 84A] | 4.17 µM | 18.1 µM | 0.139 µM | 11.3 µM | 7.41 µM |  |  |  |  |  |
